Experimental data reported in a melting point compilation (Tetko et al.; mined from patent text by program, amines drawn as free bases though some values may be those of a salt).

| SMILES | melting point [°C] |
| --- | --- |
| CC(=O)OC1CCC2(C)C(=CCC3C2CCC2(C)C(C(C)CO)=CCC32)C1 (stereo not given) | 170 to 171 |
| CN(C)CCCOc1ccc(-c2nnc(CSCCOc3ccccc3)o2)cc1 | 70 |
| Cc1cccc(NC(=O)C(C)Oc2ccc(Oc3ccc(C#N)cc3)cc2)n1 (stereo not given) | 109 to 111 |
| c1ccc(Cc2ccc3c(c2)nc2n3CCCS2)cc1 | 145 to 147 |
| Cn1ccnc1Sc1ccc(Nc2c(C#N)cnc3cc(/C=C/CCOC4CCCCO4)ccc23)cc1Cl (stereo not given) | 217 to 220 |
| CC(C)c1coc(=O)n1-c1cc(F)c(C#N)cc1F | 83 |
| CC(C)Oc1cc(CCCOc2cc(CCC(=O)O)n(-c3ccccc3)n2)n(Cc2ccc(Cl)cc2Cl)n1 | 146 to 148 |
| O=C1c2ccccc2OCN1CCCCCO[N+](=O)[O-] | 39 to 41 |
| COc1cc(N2CCOCC2)ccc1C(=O)O | 158 to 160 |
| N#Cc1ccc([C@H]2CC[C@H](CI)CC2)cc1 | 127 |
| CC(C)(C)c1cc(OCCCc2nnn[nH]2)cc(C(C)(C)C)c1O | 179 to 180 |
| CCCC(=O)NCCCC1c2ccccc2C=Cc2ccccc21 | 76 to 80 |
| Cc1c(-c2ccc(N3CCOC3=O)cc2)nc2n1CCc1ccccc1C2OC1CCN(C)CC1 (stereo not given) | 214 |
| Cc1ccc(-c2ccc(Cl)c(OC3SCC(O)C(O)C3O)c2)cn1 (stereo not given) | 201 |
| CCNc1nc(C)c(-c2ccnc(Nc3ccc(N4CCOCC4)c(C)c3)n2)s1 | 213 to 214 |
| CC(=S)NCC1CN(c2ccc(-n3cnc(Cn4ccnc4)c3)c(F)c2)C(=O)O1 (stereo not given) | 160 to 162 |
| O=C1c2ccccc2-c2csc(N3C(=O)c4ccccc4C3=O)c21 | 197 to 199 |
| COc1cc2nc(N3CCc4c(CO)cccc4C3)[nH]c(=O)c2cc1OC | 200 to 206 |
| CCN(CC)C(=O)COC(=O)c1cccc(NC(=O)C(CSC(C)=O)Cc2ccccc2)c1 (stereo not given) | 143 to 144 |
| O=C(Cc1ccc(I)cc1)N1CCOCC1 | 114 to 117 |
| Cn1ncnc1COc1nn2c(-c3ccccc3F)nncc2c1I | 218 to 219 |
| Fc1cccc(NC(=S)c2ccccn2)c1 | 72 to 76 |
| COc1ccccc1[C@@]1(O)[C@H](O)CC(c2ccccc2)(c2ccccc2)[C@@H]2CN(C(=O)Cc3ccc4ccccc4c3)C[C@@H]21 (racemic) | 188 to 190 |
| O=c1ccccn1[C@@H]1c2cc(C(F)(F)C(F)(F)F)ccc2OC(CF)(CF)[C@H]1O (relative stereo) | 162 to 164 |
| O=C(O)c1cccn1-c1ccc(F)cc1 | 195 to 196 |
| COc1ccc2c(c1)C(=O)N(c1ccc3ccn(CC#N)c3c1)C2 | 218 to 220 |
| O=C(Oc1cc(OC(=O)c2cc(O)cc(O)c2)c2ccccc2c1)c1cc(O)cc(O)c1 | 167 to 169 |

| SMILES | melting point [°C] |
| --- | --- |
| c1ccc([C@@]23O[C@@H]2CCc2ccccc23)cc1 | 124 to 126 |
| COc1ccc([C@H](O)[C@@H](Cc2ccc(C(F)(F)F)cc2)NC(=O)c2ccc(F)c3ccccc23)cc1 (racemic) | 184 to 185 |
| O=C(O)c1cc(I)c(F)c(F)c1F | 167 to 171 |
| N#Cc1ccc(N2CCN(Cc3cnc4c(c3)NC(=O)[C@@H]3CCCN43)CC2)c(Cl)c1 | 213 to 215 |
| CCn1c(C(O)(c2cccc(C(F)(F)F)c2)c2cccc(C(F)(F)F)c2)nc(-c2ccncc2)c1-c1ccc(Cl)cc1 | 193 to 195 |
| Cc1nc2cc(CCCN3C(=O)c4ccccc4C3=O)ccc2s1 | 126 |
| CCC(CC)Nc1cc(C)nc(Oc2c(C)cc(C)cc2C)c1N | 105 to 107 |
| CCc1cc2c(s1)-n1c(C)nnc1C(N)N=C2c1ccccc1Cl (stereo not given) | 130 to 131 |
| COCCNC(=O)c1ccc(N2CCC(N3C(=O)OCc4ccccc43)CC2)c([N+](=O)[O-])c1 | 192 to 193 |
| CCCCCC1(C(=O)O)CC2=C(C1)C(C)(C)CCC2(C)C | 57 to 58 |
| O=c1ccc2c(-c3cccc([N+](=O)[O-])c3)nccc2[nH]1 | > 300 |
| CC(C)(C)OC(=O)C(CN)CC(=O)N1CCNCC1 (stereo not given) | 142 |
| Cc1ccc2c(c1)NC(=S)C2=O | 246 |
| O=C1c2cccc(O)c2Cc2cccc(O)c21 | 231 to 233 |
| CC(C)(CCCCCNS(=O)(=O)c1ccc(Cl)cc1)C(=O)O | 132 to 133 |
| COc1ccc(CN2CCC(N=C(NC#N)N3CCc4ccccc4C3)CC2)cc1 | 135 to 137 |
| N#CCC=Cc1ccccc1S(N)(=O)=O | 144 to 145 |
| COc1ccc(C=CC(=O)N2CCc3c([nH]c4ccccc34)C2c2ccc3c(c2)OCO3)cc1OC (stereo not given) | 233 |
| CN(C)C(=O)c1cccc2c1nc(-c1c(F)cccc1F)n2Cc1c(F)cccc1F | 213 to 214 |
| CC(C)C1(C)NC(c2ccc(C=O)cn2)=NC1=O (stereo not given) | 106 to 108 |
| CC(C)C(Br)C(=O)Nc1ccccc1O (stereo not given) | 110 to 111 |
| COc1cc(OC)nc(C(C(=O)O)C(C)C)n1 (stereo not given) | 99 to 101 |
| CCN1c2ncc(CO)cc2C(=O)N(C)c2ccc(F)nc21 | 40 |
| O=C1c2ccccc2C(=O)N1CC(=O)N1c2ccccc2N(Cc2ccccn2)C(=O)[C@H]2CCC[C@H]21 (relative stereo) | 227 to 229 |
| CC(=O)Nc1cc(C(C)(C)C)cc(OCc2ccccc2)c1C | 170 to 172 |
| CC(C)NC(=O)c1c(I)cccc1C(=O)Nc1ccc(OCC(F)(F)F)nc1 | 220 to 225 |

The next lines start with the values.

| melting point [°C] | SMILES |
| --- | --- |
| 239 to 242 | C=CC12CCc3cc(O)ccc3C1CCC1(C)C(=O)CCC12 (stereo not given) |
| 157 to 163 | CC(C)C1(C)N=C(c2ncc(C3CC3)cc2C(=O)O)NC1=O (stereo not given) |
| 96 to 98 | CC(C)(C)OC(=O)N1CCC(CN2C(=O)C3(COc4cc5c(cc43)CCO5)c3ccccc32)CC1 (stereo not given) |
| 70 to 72 | CCCCc1nc2sccc2c(=O)n1CCC |
| 178 to 180 | CCc1ccc2c(c1)C=Cc1ccccc1C2c1cn(Cc2ccc(C(=O)O)o2)c(=O)[nH]c1=O (stereo not given) |
| 203 | O=C(NC(=O)c1cc(F)c(F)cc1Cl)Nc1cccnc1N1CCC(C(=O)NCCO)CC1 |
| 98 to 99 | N#CC(C#N)C(=O)c1ccoc1 |
| 188 | N#CCC(=O)N[C@H]1CC[C@H](CCN2CCN(c3nccc4c3CCO4)CC2)CC1 |
| 317 to 318 | CCc1nnc(-c2ccc(O)cc2)n1-c1ccc(O)cc1 |
| 205 to 206 | COc1ccc([N+](=O)[O-])c2c1CC(NC(C)=O)CC2 (stereo not given) |
| 236 to 238 | Cc1cc(-c2nnc3c4ccccc4c(OCc4cncn4C)nn23)no1 |
| 163 to 165 | O=C1Nc2cc(Cl)ccc2Sc2ccccc21 |
| 254 to 257 | CCNCC1CN(c2c(F)cc3c(=O)c(C(=O)O)cn(C4CC4)c3c2Cl)CC1C (stereo not given) |
| 156 to 159 | COc1cc(C(=O)N2CCN(c3cccc(C)c3Cl)CC2)cc(OC)c1OC |
| 137 to 139 | Cn1nnc(-c2ccc(C=O)cc2)n1 |
| 142 to 144 | CC(C)(COc1ccc(Cl)cc1)C(O)C(Oc1ccc(Cl)cc1)n1ccnc1 (stereo not given) |
| 197 to 199 | O=C1CCOc2ccc(/C=C/c3nc4cc(F)ccc4s3)cc21 |
| 236 to 238 | Nc1c(NCCSCc2csc(CN3CCCCC3)c2)c(=O)c1=O |
| 46 to 50 | C#Cc1ccc(SC)cc1Cl |
| 233 to 234 | C=Cn1cc(C(=O)O)c(=O)c2cnc(N3CCN(C)CC3)nc21 |
| 60 | CCc1cc(C)cc(CC)c1C1=C(OCc2ccccc2)C2CC(C=CC(C)=O)CC2C1=O (stereo not given) |
| 300 | CCOC(=O)c1c[nH]c2cc(Cl)ncc2c1=O |
| 209 to 210 | Cc1cc(N2N=CCNC2=O)cc(Cl)c1Cc1ccc(Cl)cc1 |
| 148 to 150 | CCCC(C)(Sc1ccc(OCCn2c(CC)nc3ccccc3c2=O)cc1)C(=O)OCC (stereo not given) |

| melting point [°C] | SMILES |
| --- | --- |
| 119 to 120 | CCCCN1C(=O)C2(COc3cc4c(cc32)OCO4)c2ccccc21 (stereo not given) |
| 153 to 155 | O=C(O)c1cc(OCC(F)(F)F)c(Cl)cc1[N+](=O)[O-] |
| 212 to 214 | CCn1c(=O)c2c(nc(/C=C/c3ccc(OCCCCN)cc3)n2C)n(CC)c1=O |
| > 250 | CCOc1ccc(NC=C(C#N)C(=O)Nc2cc(OC)c(Cl)cc2Cl)cc1Br |
| 94 to 95 | CC(C)=CCCC(C)=CCc1c(-c2ccc(O)cc2O)oc2cc(O)cc(O)c2c1=O |
| 98 to 99 | COC(=O)c1cc(C)c(C(=O)OC)c(OC)c1 |
| 96 | COc1cc(C)cc(OC)c1N(CC1CCCCC1)C(=O)CNC(=O)c1cc2ccccc2n1CCC(=O)NC1C2CC3CC(C2)CC1C3 (stereo not given) |
| > 250 | Nc1nc(-c2ccccc2)c(-c2ccc(=O)[nH]n2)s1 |
| 218 to 220 | O=[N+]([O-])c1ccc(Oc2ccc3ccc(Oc4ccc([N+](=O)[O-])c(O)c4)cc3c2)cc1O |
| 164 to 166 | CC(=O)Nc1nc2ccc(OC(C)=O)cc2n1S(=O)(=O)N(C)C |
| 73 to 74 | CCOCc1cc2ccccc2oc1=Nc1ccc(Br)cc1 |
| 117 to 119 | CC(C)C(NS(=O)(=O)c1ccc(Cl)cc1)c1ccc(CCCC(=O)O)cc1 (single isomer, unassigned; (+)) |
| 137 to 138 | N#CC=C1c2ccccc2C=Cc2ccccc21 |
| 180 to 181 | CCOC(=O)C1=C(COC2CCN(C)CC2)NC(C)=C(C(=O)OC)C1c1cccc(C(F)(F)F)c1Cl (stereo not given) |
| 82 to 83 | COC(=O)C1CC(c2ccncc2)CCC1=O (stereo not given) |
| 94 to 95 | CCOC(=O)C1=C(C=O)NC(C(F)(F)F)=C(C(=O)OCC)C1c1cccc2nonc12 (stereo not given) |
| 131 to 132 | CC(C)NC(=O)c1nc(-c2ccccc2)c(-c2ccc(=O)n(C(C)C)n2)s1 |
| 233 to 235 | OCCCn1c(-c2c(Cl)cccc2Cl)nc(-c2ccncc2)c1-c1ccc(Cl)cc1 |
| 120 to 122 | Cc1cc(OC(=O)c2ccccc2)ccc1O |
| 172 to 173 | CC(C)Cc1ccc(C(C)C(=O)NCCCCn2cnc3c(N)nc4ccccc4c32)cc1 (stereo not given) |
| 196 to 200 | O=Cc1c[nH]c2cccc(O)c12 |
| 121 to 122 | OC(COc1ccc(-c2ccc(Br)cc2)cc1)CN1CCCC1 (stereo not given) |
| 62 to 63.5 | CN(O)C(=O)c1ccc(CCCCc2ccccc2)cc1 |
